Data set [1] can be described thus: Solvatochromism: absorption maximum in different solvents. It counts as physicochemical.
A short description of data set [2]: Optical properties of the fluorophores measured in ethanol, compared to ICG. Format: physicochemical. The conditions noted are these: for Φ^a (%): compared to ICG. The gist of the method: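 Optical properties of the fluorophores were measured in ethanol and compared with a reference dye. Read-outs were absorption maximum, emission maximum, Stokes shift, quantum yield and molar extinction coefficient. The text gives no concentrations, instrument, temperature, replicates or derivation method.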

From patent publication US20250152751A1, “RED-SHIFTED FLUOROPHORES AND METHODS OF USING THE SAME” (GEORGIA STATE UNIVERSITY RESEARCH FOUNDATION, INC., priority 2022, published 2025) come the findings set out here.

`CCN1C(=CC=C2CCCC(C=C(C#N)C(=O)O)=C2N2CCC(CO)CC2)C(C)(C)c2ccccc21` [Compound 80]: in data set [1], the “λabs (nm) Acetonitrile” value is on record as 660 nm, the “λabs (nm) DMSO” value is 690 nm, the “λabs (nm) Ethanol” value turned out to be 685 nm and the “λabs (nm) Methanol” value turned out to be 675 nm. Further, in data set [2], the “Stokes Shift (nm)” value turned out to be 101 nm, the “λabs (nm)” value is 685 nm, the “λem (nm)” value is given as 786 nm and the “ϵ (cm^−1 M^−1)” value is 78,200 cm^−1 M^−1. Also, the “Φ^a (%)” value in data set [2] was determined as 16.7%.

Turning to `CCN1/C(=C/C=C2\CC(C(C)(C)C)CC(/C=C(\C#N)C(=O)O)=C2Sc2ccncc2)C(C)(C)c2cc(Cl)ccc21` (stereo not shown) [Compound 79], in data set [1], the “λabs (nm) Acetonitrile” value came out at 800 nm, the “λabs (nm) DMSO” value is 815 nm, the “λabs (nm) Ethanol” value was 805 nm and the “λabs (nm) Methanol” value is 800 nm. Moreover, in data set [2], the “Stokes Shift (nm)” value is 13 nm, the “λabs (nm)” value came out at 805 nm, the “λem (nm)” value is listed as 818 nm and the “ϵ (cm^−1 M^−1)” value is listed as 147,300 cm^−1 M^−1. The “Φ^a (%)” value in data set [2] came to 11.3%.

Regarding `CCN1C(=CC=C2CC(C(C)(C)C)CC(C=C(C#N)C(=O)O)=C2N2CCC(CO)CC2)C(C)(C)c2ccccc21` (stereo not shown) [Compound 84], in data set [1], the “λabs (nm) Acetonitrile” value is 640 nm, the “λabs (nm) DMSO” value was 665 nm, the “λabs (nm) Ethanol” value is reported as 660 nm and the “λabs (nm) Methanol” value is given as 650 nm. In data set [2], the “Stokes Shift (nm)” value was 124 nm, the “λabs (nm)” value was 660 nm, the “λem (nm)” value was 784 nm and the “ϵ (cm^−1 M^−1)” value was 75,100 cm^−1 M^−1. Moreover, in data set [2], the “Φ^a (%)” value is 18.6%.

With `CCN1C(=CC=C2CCCC(C=C(C#N)C#N)=C2Cl)C(C)(C)c2cc(Br)ccc21` [Compound 74], in data set [1], the “λabs (nm) Acetonitrile” value was determined as 790 nm, the “λabs (nm) DMSO” value came out at 800 nm, the “λabs (nm) Ethanol” value was found to be 790 nm and the “λabs (nm) Methanol” value is recorded as 785 nm. In data set [2], the “Stokes Shift (nm)” value is given as 19 nm, the “λabs (nm)” value is recorded as 790 nm, the “λem (nm)” value is reported as 809 nm and the “ϵ (cm^−1 M^−1)” value is 152,300 cm^−1 M^−1. Moreover, the “Φ^a (%)” value in data set [2] was determined as 11.3%.

Take `CCCCN1C(=CC=C2CCCC(C=C(C#N)C(=O)O)=C2Sc2ccncc2)C(C)(C)c2ccccc21` [Compound 78]: in data set [1], the “λabs (nm) Acetonitrile” value was 795 nm, the “λabs (nm) DMSO” value is given as 810 nm, the “λabs (nm) Ethanol” value is 800 nm and the “λabs (nm) Methanol” value is 800 nm. Further, in data set [2], the “Stokes Shift (nm)” value is on record as 15 nm, the “λabs (nm)” value amounted to 800 nm, the “λem (nm)” value is recorded as 815 nm and the “ϵ (cm^−1 M^−1)” value is 166,300 cm^−1 M^−1. Besides, the “Φ^a (%)” value in data set [2] was found to be 11.3%.

With `CCCCN1/C(=C/C=C2\CCCC(C=C(C#N)C#N)=C2Cl)C(C)(C)c2c1ccc1ccccc21` [Compound 76], in data set [1], the “λabs (nm) Acetonitrile” value came to 820 nm, the “λabs (nm) DMSO” value was 835 nm, the “λabs (nm) Ethanol” value is on record as 820 nm and the “λabs (nm) Methanol” value is given as 820 nm. In data set [2], the “Stokes Shift (nm)” value stood at 6 nm, the “λabs (nm)” value came to 820 nm, the “λem (nm)” value came to 826 nm and the “ϵ (cm^−1 M^−1)” value was 146,400 cm^−1 M^−1. Moreover, the “Φ^a (%)” value in data set [2] is 8.8%.

Consider `CCN1C(=CC=C2CCCC(C=C(C#N)C(=O)O)=C2Sc2ccncc2)C(C)(C)c2ccccc21` [Compound 77], for which, in data set [1], the “λabs (nm) Acetonitrile” value was 790 nm, the “λabs (nm) DMSO” value stood at 810 nm, the “λabs (nm) Ethanol” value is 800 nm and the “λabs (nm) Methanol” value was 795 nm. In data set [2], the “Stokes Shift (nm)” value was determined as 15 nm, the “λabs (nm)” value amounted to 800 nm, the “λem (nm)” value was 815 nm and the “ϵ (cm^−1 M^−1)” value is recorded as 134,400 cm^−1 M^−1. Further, in data set [2], the “Φ^a (%)” value is recorded as 11.5%.

As for `CCN1C(=CC=C2CCCC(C=C(C#N)C(=O)O)=C2Cl)C(C)(C)c2cc(Br)ccc21` [Compound 53], in data set [2], the “Stokes Shift (nm)” value is listed as 17 nm, the “λabs (nm)” value turned out to be 790 nm, the “λem (nm)” value is given as 807 nm and the “ϵ (cm^−1 M^−1)” value is 171,000 cm^−1 M^−1. Moreover, in data set [2], the “Φ^a (%)” value amounted to 11.8%.

As to `CCN1C(=CC=C2CC(c3ccccc3)CC(C=C(C#N)C(=O)O)=C2Cl)C(C)(C)c2cc(Br)ccc21` (stereo not shown) [Compound 68], in data set [2], the “Stokes Shift (nm)” value worked out at 15 nm, the “λabs (nm)” value is 790 nm, the “λem (nm)” value is given as 805 nm and the “ϵ (cm^−1 M^−1)” value is 167,800 cm^−1 M^−1. Besides, the “Φ^a (%)” value in data set [2] is recorded as 12.1%.

Take `CCN1C(=CC=C2CCCC(C=C(C#N)C(=O)O)=C2N2CCC(CO)CC2)C(C)(C)c2cc(Br)ccc21` [Compound 82]: in data set [1], the “λabs (nm) Acetonitrile” value turned out to be 640 nm, the “λabs (nm) DMSO” value stood at 670 nm, the “λabs (nm) Ethanol” value was 675 nm and the “λabs (nm) Methanol” value is reported as 665 nm. In data set [2], the “Stokes Shift (nm)” value is recorded as 124 nm, the “λabs (nm)” value was 675 nm, the “λem (nm)” value worked out at 794 nm and the “ϵ (cm^−1 M^−1)” value is 61,000 cm^−1 M^−1. Moreover, the “Φ^a (%)” value in data set [2] was 17.3%.
